Test system: isoliert-perfundierte Mauslungen
Experiment: Hypoxic pulmonary vasoconstriction in the isolated perfused mouse lung (IPL)
Set-up: species or system C57BU6J Mäuse
Conditions: control ΔPAP ca. 4 cmH2O, P<0,005
Experimental: Hypoxisch pulmonale Vasokonstriktion an der isoliert-perfundierten Mauslunqe (IPL)
Für die IPL wurden 10-12 Wochen alte C57BU6J Mäuse verwendet. Zu Beginn wurden die Mäuse anästhesiert (Ketamin 100mg/kg Körpergewicht (KG); Xylazin 20mg/kg KG) und mittels zervikaler Dislokation getötet. Im Anschluss wurde eine Tracheotomie durchgeführt und die Lunge in situ positiv mit normoxischem (20% O2; 5% CO2; 75% N2) Gas ventiliert (Tidalvolumen: 100 µl; Atemzüge pro Minute: Körpergewicht x 10). Anschließend wurde der Bauchraum eröffnet, das Diaphragma durchtrennt und Heparin (100 U) in den rechten Ventrikel injiziert. Nach der Eröffnung des Thorax mittels Sternotomie wurde sowohl die Pulmonalarterie als auch der linke Ventrikel kanüliert und die Lunge mit auf 37°C temperierter, gepufferter Salzlösung nach Hanks, angereichert mit Ca^2+, Mg^2+ und 10% FBS, perfundiert. Je nach Versuchsgruppe wurde das Perfusat zusätzlich mit einer Gewichts-entsprechenden Menge an Metamizol, 4-Aminoantipyrin oder 4-Methylamioantipyrin versetzt. Sobald sich der pulmonalarterielle Druck (PAP) stabilisiert hatte, wurden die Basalwerte aufgezeichnet und anschließend die Mauslunge mit hypoxischem Gas (1% O2; 5% CO2; 94% N2) ventiliert. Veränderungen des PAP wurden mithilfe eines Drucksensors P75 (Havartus apparatus) detektiert, und geben das Ausmaß der hypoxischen Vasokonstriktion der Lunge wieder.

Compound: CNc1c(C)n(C)n(-c2ccccc2)c1=O [4-Methylaminoantipyrin]
- Reduktion des ΔPAP in Abhängigkeit der Konzentration (50-200 mg/kg KG in perfusate, hypoxic gas (1% O2; 5% CO2; 94% N2), Fig. 2): Dosis-abhängigen Reduktion des ΔPAP
- inhibition at 200 mg/kg (Mus musculus, 200 mg/kg KG in perfusate, ventilation switched from normoxic to hypoxic gas (1% O2; 5% CO2; 94% N2), Fig. 1, read-out: Reduktion des ΔPAP nach Umschalten auf Hypoxie): 70%

Reference: EP4167996B1, “METAMIZOLE DERIVATIVES FOR THE PREVENTION AND TREATMENT OF PULMONARY HYPERTENSION” (Preißner, Robert, priority 2020, dated 2021)
